Experiments:
[1] = prescribing information approved as of the priority date; cited from earlier work
[2] = post-marketing experience (post-approval use): adverse reactions in treated patients; format: in vivo; conditions: for adverse reactions associated with treatment, identified during post-approval use: reported voluntarily from a population of uncertain size, frequency and causality not established
From the text: This invention comprises the discovery through post-marketing experience that treatment of patients with iloperidone has been associated with specific adverse reactions.
Without limiting this invention to a particular mechanism of action, the enumerated reactions may be hypersensitivity reactions. An aspect of this invention therefore comprises amending the contraindications section and/or the adverse events section of the iloperidone package insert, i.e., prescribing information, to read more or less as follows: • 4 CONTRAINDICATIONS • FANAPT is contraindicated in individuals with a known hypersensitivity reaction to the product. […] Because these reactions were reported voluntarily from a population of uncertain size, it is not possible to reliably estimate their frequency or establish a causal relationship to drug exposure.

## COc1cc(C(C)=O)ccc1OCCCN1CCC(c2noc3cc(F)ccc23)CC1 [iloperidone]
[1]
  known hypersensitivity reactions to the product (Contraindications section): pruritus and urticaria
[2]
  relative frequency among the enumerated reactions: rash was the most common followed by swollen tongue and swollen lip
  adverse reactions associated with treatment, identified during post-approval use: anaphylaxis, angioedema, throat tightness, oropharyngeal swelling, swelling of the face, lip, mouth, and tongue; urticaria, rash, and pruritus
[2]; listed as FANAPT
  adverse reactions associated with treatment, identified during post-approval use: retrograde ejaculation and hypersensitivity reactions (including anaphylaxis, angioedema, throat tightness, oropharyngeal swelling, swelling of the face, lip, mouth, and/or tongue; urticaria, rash, and pruritus)
